Measurements reported in US8093393B2, “Cationic ceramides, and analogs thereof, and their use for preventing or treating cancer” (MUSC Foundation for Research Development, priority 2004, dated 2012).
Where two headings read alike, the source gives them in different places.

How the values were obtained:
HNSCC tumors = assay: Endogenous ceramide and SM levels in HNSCC tumors, LC/MS; parameters: species or system SCID mice; settings: mouse, in vivo
Excerpt: FIG. 28. […] The levels of C14-, C16-, C18-, C24-, C24:1-, dihydro-C16-ceramides, and sphingosine are shown in (A), and C18:1-, C20-ceramides, and dihydro-sphingosine, and sphingosine-1-phosphate levels are shown in (B). The levels of C16-, C22-, C-24 and C24:1-SM levels are shown in (C), and C14-, C18-, C18:1-, C20, C20:1, and C22:1 SM levels are shown in (D).

[1] = system: MCF7 breast carcinoma cells; assay: Cell proliferation and viability, Trypan blue exclusion assay; type: cell-based; settings: 48 h
How it was run: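 Cells seeded overnight in 10% FCS, then exposed to LCL compounds at 0-20 μM in ethanol (below 0.1%) for 48 h. Viable cell numbers counted by Trypan blue exclusion under light microscope, expressed as percentage of untreated controls; duplicate samples, two or three independent experiments.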

UM-SCC-22A xenografts [2] = system: UM-SCC-22A xenografts
Procedure: A) Upper Panel: In vivo therapeutic efficacy of L-t-C6-Pyr-Cer in combination with GMZ was determined in SKID mice harboring the UM-SCC-22A xenografts implanted in both flanks. The animals were treated with L-t-C6-Pyr-Cer and GMZ at 40 mg/kg/each every 4 days for 20 days. […] In these experiments, each group contained 6 mice, harboring 12 tumors, in this study. Error bars represent standard deviations, and p values were calculated. […] C) The blood counts, the levels of serum enzymes, and electrolytes were analyzed in response to L-t-C6-Pyr-Cer alone or in combination with GMZ in SKID mice.
After tumors were grown to about 200-400 mm^3 (about two weeks after implantation), the mice were treated without or with chemotherapeutic agents with intraperitoneal (IP) injection (alone or in combination) at half of their maximum tolerated doses (MTD) every 4 days for 20 days. Tumor volumes and the weights of the animals were measured before each treatment, and tumor sizes were measured at the end of the study. The endpoint was tumor rate of growth and/or tumor volume, which was calculated using the formula: length×width^2×0.52. Each experiment included at least 6 mice (which harbored two SCC tumors in flanks) per each treatment, and experiments were done at least in two independent trials.

hTERT = hTERT mRNA (Q-PCR) and protein (Western blot) in tumor tissues; type: in vivo, human
Excerpt: FIG. 29. […] In (B), DNA samples obtained from tumors treated with GMZ (G), L-t-C6-Pyr-Cer (Cer), and the combination of L-t-C6-Pyr-Cer with GMZ (G/C, lanes 2-4, respectively) were compared to that of untreated (U) tumors (lane 1). Lanes 5 and 6 contain DNA samples with low (L) and high (H) molecular weight (3.9 and 10.2 kb, respectively) telomeres. In (D) The levels of hTERT protein in samples obtained from tumors treated with GMZ (G), L-t-C6-Pyr-Cer (Cer), and the combination of L-t-C6-Pyr-Cer with GMZ (G/Cer, lanes 2-4, respectively) were determined by Western blot analysis using rabbit polyclonal anti-hTERT antibody, and compared to that of untreated (U) tumors (lane 1). […]
Determination of telomerase activity, hTERT mRNA and protein levels in tumor tissues. Telomerase activity in tissues was measured by the PCR-based telomere repeat amplification protocol (TRAP) using TRAPeze kit (Invitrogen) which includes a 36-bp internal control to allow quantification of activity. The intensity of telomere-specific DNA bands, measured using Quantity One (BioRad) software, were normalized to the intensity of internal control bands for each sample on polyacrylamide gels for quantification. […] The protein levels of hTERT in these tumor tissue extracts (in CHAPS buffer) were determined by Western blot analysis using anti-hTERT rabbit polyclonal antibody (CalBiochem) at 1:1000 dilution. […]

telomeres = assay: Telomere length (TRF) in tumor tissues; type: in vivo, human; settings: versus untreated controls
Excerpt: FIG. 29. […] In (B), DNA samples obtained from tumors treated with GMZ (G), L-t-C6-Pyr-Cer (Cer), and the combination of L-t-C6-Pyr-Cer with GMZ (G/C, lanes 2-4, respectively) were compared to that of untreated (U) tumors (lane 1). Lanes 5 and 6 contain DNA samples with low (L) and high (H) molecular weight (3.9 and 10.2 kb, respectively) telomeres. In (D) The levels of hTERT protein in samples obtained from tumors treated with GMZ (G), L-t-C6-Pyr-Cer (Cer), and the combination of L-t-C6-Pyr-Cer with GMZ (G/Cer, lanes 2-4, respectively) were determined by Western blot analysis using rabbit polyclonal anti-hTERT antibody, and compared to that of untreated (U) tumors (lane 1). Lanes 5 and 6 contain samples from telomerase positive (+) and negative (−) extracts. Beta-actin levels of these samples were used as loading controls (lanes 1-6, lower panel). The data shown are representative of two independent trials, and error bars represent standard deviations.
Analysis of telomere length in tumor tissues. The measurement of telomere length was performed in total genomic DNA samples isolated from tumor tissues of the SCID mice using Telomere Restriction Fragment (TRF) Length measurement kit (Roche) by Southern blotting as described in Sundararaj, et al. J Biol Chem 2004; 279:6152-6162.

UM-SCC-22A cells [3] = settings: 1 μM
Procedure: B) The subcellular accumulation of L-t-C6-Pyr-Cer at 1-48 hr was detected by LC/MS in UM-SCC-22A cells after differential centrifugation, as described in Materials and Methods.
Subcellular fractionation, and the analysis of ceramide subspecies by mass spectroscopy (MS). The sub-cellular accumulation of L-t-C6-Pyr-Cer was analyzed by utilizing normal phase high performance liquid chromatography and mass spectroscopy (LC/MS). […] In short, cells were incubated in a buffer containing 300 mM sucrose, 10 mM Hepes (pH 7.4), 1 mM EDTA and 0.5 mM PMSF for 30 minutes on ice. The cells were then passed through 25-gauge needle for 5 strokes, and centrifuged at 1,000×g for 10 mM, 10,000×g for 10 min, and 100,000×g for 60 min at 4° C., for collection of the nuclei-, mitochondria-enriched fractions, and microsomes, respectively.

UM-SCC-22A xenografts [4] = settings: 40 mg/kg alone or plus GMZ 80 mg/kg, 24 days
Procedure: Treatment of UM-SCC-22A (hypopharynx) xenografts in SCID mice. […] Once the xenograft achieved a standard volume, the animals were randomized to receive no treatment (control), LCL-194 alone (40 mg/kg), LCL-124 alone (40 mg/kg), LCL-124 (40 mg/kg) plus GMZ (80 mg/kg), GMZ (80 mg/kg)+DOX (2 mg/kg), or 5FU plus cisplatin (25 mg/kg each). Tumors were measured every 4 days for 24 days.
The compound was further tested in an animal model of SCID mouse and UM-SCC-22A xenografts (hypopharynx). Xenograft development and treatment was carried out by standard methods. Once the xenograft achieved a standard volume, the animals were randomized to receive no treatment (control), LCL-194 alone (40 mg/kg), LCL-124 alone (40 mg/kg), LCL-124 (40 mg/kg) plus GMZ (80 mg/kg), GMZ (80 mg/kg)+DOX (2 mg/kg), or 5FU plus cisplatin (25 mg/kg each). Tumors were measured every 4 days.

UM-SCC-22A cells [5] = assay: MTT cell survival assay and isobologram studies; type: cell-based, human; settings: for IC50: UM-SCC-22A, read-out: IC50, cell growth
Procedure: Human head and neck cancer cell lines UM-SCC-1 (retromolar trigone/floor of the mouth), UM-SCC-12 (primary tumor of larynx), and UM-SCC-22A cells were obtained from clinical samples. Cells were grown in DMEM containing 10% FCS and 1% penicillin/streptomycin at 37° C. in 5% CO2.
MTT cell survival assay and isobologram studies. The concentrations of agents that inhibited cell growth by 50% (IC50) were determined from cell survival plots obtained by MTT. Triplicate wells were used for each treatment. The final concentration of DMSO (a solvent for conventional ceramides, GMZ and DOX) in the growth medium was less than 0.1% (v/v) which has no effect on cell growth and survival. Pyridinium ceramides were dissolved in sterile water or growth medium. In short, after cells (5-10×10^3/well) were seeded in 96-well-plates for 24 hr, they were treated with increasing concentrations of ceramide analogs for an additional 48 or 96 hr. For combination treatments, ceramides and chemotherapeutic agents (gemcitabine (GMZ) or doxorubicin (DOX)) were added to the growth medium simultaneously during treatment. Isobologram plots were then constructed using IC50 values of the two agents alone or in combination obtained from MTT assays. A straight line joining points on x- and y-axes represent the IC50 concentrations of two agents, and the points representing the IC50 concentrations of the combination of the two agents are represented as scatter plots on the same graphs. In general, the points that fall within the left of the straight line indicate synergism. The experiments were performed as triplicates in at least 3 independent experiments.
Human head and neck cancer cell lines UM-SCC-1 (retromolar trigone/floor of the mouth), UM-SCC-14A (SCC of anterior floor of the mouth), and UM-SCC-22A (SCC of hypopharynx) cells were obtained. Cells were grown in DMEM containing 10% FCS and 1% penicillin/streptomycin at 37° C. in 5% CO2.
MTT cell survival assay and isobologram studies. The concentrations of agents that inhibited cell growth by 50% (IC50) were determined from cell survival plots obtained by MTT assays. […] In general, the points that fall within the left of the straight line indicate synergism. The experiments were performed as triplicates in at least 3 independent experiments. Error bars represent standard deviations.

UM-SCC-14A cells = settings: read-out: IC50, growth; UM-SCC14A, 48 hr
Procedure: Cells were grown in DMEM containing 10% FCS and 1% penicillin/streptomycin at 37° C. in 5% CO2.
MTT cell survival assay and isobologram studies. The concentrations of agents that inhibited cell growth by 50% (IC50) were determined from cell survival plots obtained by MTT assays. […] A straight line joining points on x- and y-axes represent the IC50 concentrations of GMZ and L-t-C6-Pyr-Cer alone, and the points representing the IC50 concentrations of the combination of the two agents are represented as scatter plots on the same graphs. […] The experiments were performed as triplicates in at least 3 independent experiments.

[6] = IP 40 mg/ml
Procedure: The determination of MTD, and pharmacokinetic parameters, such as clearance from the serum, and bioaccumulation in various organs, of L-t-C6-Pyr-Cer in vivo. A) MTD of L-t-C6-Pyr-Cer was determined in dose escalation studies, in which BALB/c mice were treated (by IP injections) with increasing concentrations of the compound (10-150 mg/kg), dissolved in sterile saline solution, for 24 hr. […] B and C) The levels of L-t-C6-Pyr-Cer in the serum (B) or in the vital organs (C) of the BALB/c mice were measured by LC/MS after IP injection of the compound for various time points. The experiments were performed in two independent trials as duplicates, and error bars represent standard deviations.
Animal studies. […] The maximum tolerated dose (MTD) of L-t-C6-Pyr-Cer was determined by dose escalation studies. In short, 7-week-old BALB/c mice were treated with increasing concentrations of the compound for various time intervals. Possible toxicity of the compound to the vital organs of the animals was analyzed by both gross examination, and histopathology. The accumulation of the compound in vital organs and in the serum was also determined by LC/MS as described previously Koybasi S et al. J Biol Chem 2004; 279:44311-44319).

## CCCCCCCCCCCCC/C=C/[C@H](O)[C@H](CO)NC(=O)CCCCC[n+]1ccccc1.[Br-] [LCL124, L-threo-2-N-[6′-(1″-Pyridinium)-hexanoyl]-sphingosine Bromide]
HNSCC tumors
  effect on endogenous SM levels: no significant changes were observed
  effect on endogenous ceramides in tumor site: did not cause any sustained elevation of endogenous ceramides
[1]
  inhibitory effect on MCF7 cell growth (in words): caused inhibitory effect on MCF7 cell growth
UM-SCC-22A xenografts [2]; 40 mg/kg/each IP every 4 days for 20 days
  inhibition of HNSCC tumor growth: some inhibition of HNSCC tumor growth
UM-SCC-22A xenografts [2]; about 20 parameters
  blood counts, serum enzyme activities and electrolytes: no detectable abnormalities
UM-SCC-22A xenografts [2]; after completion of the study
  toxicity to vital organs, histopathology: no detectable toxicity
hTERT; Q-PCR
  hTERT mRNA levels in tumors: decreased levels of hTERT mRNA and protein expression
hTERT; Western blot
  hTERT protein levels in tumors: decreased levels of hTERT mRNA and protein expression
telomeres
  reduction of TRF (telomere) length in tumors: about 500 bp
UM-SCC-22A cells [3]
  amount in supernatant or pellet of 100,000×g fractions: either not detectable (at 1-6 hr), or minimal (at 12-48 hr)
UM-SCC-22A cells [3]; 3-48 hr
  level in the 10,000×g (mitochondria enriched) fraction: 1,000-3,000 pmol/0.1 mg protein
UM-SCC-22A cells [3]; 6-48 hr
  level in the 1,000×g (nuclei enriched) fraction: 250-2,500 pmol/0.1 mg protein
UM-SCC-22A xenografts [4]
  suppression of xenograft tumor growth: can act alone or in combination with GMZ to suppress growth of chemotherapy-resistant classes of tumors
UM-SCC-22A cells [5]; UM-SCC-22A, 100, 250 and 500 nM with GMZ, 48 hr
  interaction with GMZ, isobologram: decreased growth synergistically
UM-SCC-22A cells [5]; 48 hr, listed as L-t-C6-Pyr-Cer
  IC50: 1 to 2 µM
UM-SCC-22A cells [5]; 48 hr, listed as L-th-C6-Pyr-Cer
  IC50: ~1 µM
UM-SCC-22A cells [5]; 96 hr, DMEM, listed as L-th-C6-Pyr-Cer
  IC50: ~0.3 µM
UM-SCC-14A cells
  IC50: 1 to 2 µM
[6]
  accumulation in the brain or heart: no significant accumulation
  accumulation in the kidneys: at high levels in the kidneys within 8-24 hr
  time to clearance from the serum: ≤ 4 h
[6]; 0.5 hr
  serum level: 4,500 pmol/0.1 ml serum
[6]; 2 hr
  serum level: 6,500 pmol/0.1 ml serum
[6]; after 5 min
  level in the intestines: about 600 pmol/mg protein
[6]; after 2 hr
  level in the liver: ~500 pmol/mg protein
[6]; after 24 hr
  accumulation in the lungs: some accumulation
